Earlier results on 2 compounds are cited in patent US20030114475A1, “Methods for the treatment of addiction” (Addiction Therapies, Inc., priority 2001, published 2003).

Molecules are shown by their SMILES.

One series deals with dopamine transporter (Homo sapiens, UniProt Q01959).
The conditions of series [1]: in vivo.
The test system of series [2] is cocaine self-administration.
For series [3] the following is noted: in vivo. This is another data set of the same source.

Chain of dopamine transporter (Q01959 whole entry): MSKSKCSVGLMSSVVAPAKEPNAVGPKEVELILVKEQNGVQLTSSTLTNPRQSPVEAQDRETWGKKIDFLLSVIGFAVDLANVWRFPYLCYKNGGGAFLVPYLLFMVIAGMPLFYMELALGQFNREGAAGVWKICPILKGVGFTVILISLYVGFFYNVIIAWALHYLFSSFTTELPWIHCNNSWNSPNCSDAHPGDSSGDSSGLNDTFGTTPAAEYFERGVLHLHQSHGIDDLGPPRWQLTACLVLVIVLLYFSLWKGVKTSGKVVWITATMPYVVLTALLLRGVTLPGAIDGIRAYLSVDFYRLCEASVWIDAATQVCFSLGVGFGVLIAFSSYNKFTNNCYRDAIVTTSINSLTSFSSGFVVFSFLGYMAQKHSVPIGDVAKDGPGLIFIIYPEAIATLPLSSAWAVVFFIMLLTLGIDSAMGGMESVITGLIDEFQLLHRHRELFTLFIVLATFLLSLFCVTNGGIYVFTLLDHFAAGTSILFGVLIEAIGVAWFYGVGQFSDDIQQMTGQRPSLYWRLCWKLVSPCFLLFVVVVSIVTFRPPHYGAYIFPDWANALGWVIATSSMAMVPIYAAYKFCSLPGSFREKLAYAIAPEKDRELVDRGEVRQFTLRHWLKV

As to `Cc1ccc(-c2cc([C@@H]3C4CCC(C[C@@H]3c3ccc(Cl)cc3)N4C)on2)cc1` (stereo partly drawn) [RTI-336], the “affinity and selectivity for the dopamine transporter” value on dopamine transporter is “high affinity and selectivity”. For the same compound, the oral availability result in series [1] is “orally available”. Moreover, the “effect on cocaine self-administration” value in series [2] (rats) was “inhibits cocaine self-administration”. Also, in series [2] (rats pre-treated with 53.8 mg/kg, oral, decreased from 150±20 lever presses, unpublished observations, Dr. Susan Schenck), the “lever presses for a cocaine infusion after pre-treatment” value is recorded as 36±14 lever presses.
For the compound `COC(=O)C(c1ccccc1)C1CCCCN1` (stereo not drawn) [Methylphenidate, methylphenidate], in series [3], the elimination half-life was 2 to 3 h and the “time to peak plasma concentrations” value was 1 to 3 h.
